From PMC9135253, “Potential of phenothiazines to synergistically block calmodulin and reactivate PP2A in cancer cells” (PLoS ONE, 2022)
“And” between values parts separate entries of the source, which are not always exact repeats. Identical values can stand only once. Like-named read-outs stand apart in the source and are kept apart here.

How the values were obtained:
Assay type in all cases: cell-based
[1] = test system: caspase-3/7 activity in MDA-MB-231 cells; experiment: Caspase-3/7Glo assay; settings: 24 h
Description: (§1) Negative values (shaded red) indicate sensitivity of the cell line proliferation to the knockdown of shown genes, whereas positive scores (shaded blue) indicate insensitivity. (B) IC50 values for indicated compounds in Ras pathway mutant cell lines NCI-H358, MDA-MB231 and A375 grown as 3D spheroids under serum free conditions. […] Statistical comparisons were done using the average values across all three cell lines. […] Positive scores indicate synergistic drug interactions whereas negative scores would denote antagonistic drug interactions. A score of zero would indicate no antagonistic or synergistic effect. (D) Flow cytometric analysis of apoptosis in MDA-MB-231 cells. […] Benzethonium chloride and DMSO treated cells were used as positive and negative controls, respectively, for setting the gates. Percentage of total apoptotic cells (early and late stage) from two biological repeats (mean ± SD) is presented. Statistical analysis was performed using Fisher’s exact test comparing the total number of viable and apoptotic cells from two biological repeats. (E) Effect of inhibitors on cellular apoptosis studied using Caspase-3/7Glo assay. […] The caspase-3/7 activity was measured as a luminescence read-out and normalized to the vehicle control, 0.05% (v/v) DMSO. […] GAPDH detection was used as loading control.

[2] = test system: NCI-H358 (KRAS-G12C) 3D spheroids; experiment: 3D spheroid formation assay (alamarBlue), NCI-H358; settings: read-out: IC50 values
Protocol: (§2) 3D spheroid formation assays were performed in 96-well low-attachment, suspension culture plates (cat. no. 655185, Cellstar, Greiner Bio-One) under serum free conditions. About 1000 cells per well were seeded in 50 μL RPMI medium (cat. no. 52400–025, Gibco, ThermoFisher Scientific) containing 0.5% (v/v) MethoCult (cat. no. SF H4636, Stemcell technologies), 1X B27 (cat. no. 17504044, Gibco, ThermoFisher Scientific), 25 ng/mL EGF (cat. no. E9644, Sigma-Aldrich) and 25 ng/ mL FGF (cat. no. RP-8628, ThermoFisher Scientific). Cells were cultured for 3 days and then treated with compounds or vehicle control (DMSO 0.1% (v/v) in growth medium) for another 3 days. The cells were supplemented with fresh growth medium on the third day together with the drug treatment. Spheroid formation efficiency was analyzed by alamarBlue assay reagent (cat. no. DAL1100, ThermoFisher Scientific).
(§3) A 10% (v/v) final volume of alamarBlue reagent was added to each well of the plate and incubated for 4 h at 37°C. Then the fluorescence intensity (λexcitation 560 ± 5 nm and λemission 590 ± 5 nm) was measured using the FLUOstar OPTIMA plate reader (BMG Labtech, Germany).
as §1, with “(A) Heatmap of ATARiS gene sensitivity scores of two KRAS dependent cell lines (NCI-H358 and MDA-MB-231) and a BRAF dependent cell line (A375). Negative” for “Negative”

[3] = test system: c-MYC in MDA-MB-231 cells; experiment: Western blot of c-MYC expression; settings: 24 h
[4] = test system: MDA-MB-231 (KRAS-G13D) 3D spheroids; experiment: 3D spheroid formation assay (alamarBlue), MDA-MB-231; settings: read-out: IC50 values
Protocol: as §2, §3
as §1, with “(A) Heatmap of ATARiS gene sensitivity scores of two KRAS dependent cell lines (NCI-H358 and MDA-MB-231) and a BRAF dependent cell line (A375). Negative” for “Negative”

[5] = test system: H-RasG12V (Rluc8-/GFP2-tagged) in HEK-293 EBNA cells; experiment: H-RasG12V nanoclustering-BRET assay; settings: for H-RasG12V BRET: compounds 20 μM, FTI-277 1 μM, OphA 2.5 μM, 24 h
[6] = test system: K-RasG12V (Rluc8-/GFP2-tagged) in HEK-293 EBNA cells; experiment: K-RasG12V nanoclustering-BRET assay; settings: for K-RasG12V BRET: compounds 20 μM, FTI-277 1 μM, OphA 2.5 μM, 24 h
[7] = test system: pERK/ERK in MIA PaCa-2 cells; experiment: Western blot of MAPK signaling output (pERK/ERK); settings: MIA PaCa-2 + EGF
MDA-MB-231 cells = experiment: Flow cytometry-based apoptosis assay (Annexin V-FITC / 7-AAD); settings: for apoptotic cells (%): DT-061 10 μM, calmidazolium 5 μM or combination, 24 h
Protocol: MDA-MB-231 cells were grown for 24 h in complete RPMI medium. The next day the cells were treated with inhibitors for 24 h. […] The cells were labelled using the Annexin V-FITC / 7-AAD apoptosis-detection kit (Beckman-Coulter, cat. no. B60224-AB) according to the manufacturer’s instruction.
as §1

[8] = test system: A375 (BRAF-V600E) 3D spheroids; experiment: 3D spheroid formation assay (alamarBlue), A375
Protocol: as §2, §3
as §1, with “(A) Heatmap of ATARiS gene sensitivity scores of two KRAS dependent cell lines (NCI-H358 and MDA-MB-231) and a BRAF dependent cell line (A375). Negative” for “Negative”

O=S(=O)(N[C@@H]1CCC[C@H](N2c3ccccc3Oc3ccccc32)[C@H]1O)c1ccc(OC(F)(F)F)cc1 [DT-061]
caspase 3/7 activity (fold change) ([1]; DT-061 5 μM, calmidazolium 5 μM, combination 5 μM each, staurosporine 1 μM, normalized to DMSO, replicates): 0.9556 fold change and 1.016 fold change | caspase 3/7 activity (fold change) ([1]; same treatments, mean): 0.99 fold change | IC50 ([2]; Homo sapiens, NCI-H358, 72 h, NCI-H358 3D spheroids, serum free, 3 days treatment, replicates N1, N2): 2400 nM | IC50 ([2]; Homo sapiens, NCI-H358, NCI-H358 3D spheroids, Mean, n = 2): 2650 nM | IC50 ([2]; NCI-H358 3D spheroids, serum free, 3 days treatment, replicates N1, N2): 2890 nM | c-MYC/Vinculin relative expression ([3]; 10 μM, MDA-MB-231, replicates N1-N4): 1.352 and 1.842 and 0.8895 and 1.57 | c-MYC/Vinculin relative expression ([3]; 10 μM, Mean (DMSO 1.78)): 1.41 | c-MYC/Vinculin relative expression ([3]; 20 μM, MDA-MB-231, replicates N1-N4, values marked * excluded): 1.784* and 1.955* and 0.7599 and 0.9549 | c-MYC/Vinculin relative expression ([3]; 20 μM, Mean (DMSO 1.48)): 0.86 | IC50 ([4]; Homo sapiens, MDA-MB-231, 72 h, MDA-MB-231 3D spheroids, serum free, 3 days treatment, replicates N1, N2): 3 µM | IC50 ([4]; Homo sapiens, MDA-MB-231, MDA-MB-231 3D spheroids, Mean, n = 2): 3.05 µM | IC50 ([4]; MDA-MB-231 3D spheroids, serum free, 3 days treatment, replicates N1, N2): 3.1 µM | DSS3 BRET score ([5]; H-RasG12V nanoclustering-BRET dose response (0.1–80 μM; OphA 0.3–20 μM), replicates): 0.2 and 0.4 | DSS3 BRET score ([5]; H-RasG12V nanoclustering-BRET, mean): 0.3 | H-RasG12V BRET ([5]; A/D plasmid ratio 4/1, individual replicates N1.1-N2.4): 100.79 and 100.058 and 101.294 and 101.06 and 100.674 and 100.693 and 99.8758 and 99.7238 | H-RasG12V BRET ([5]; mean): 100.52 | effect on the RasG12V-BRET signals (in words) ([6]; K-RasG12V and H-RasG12V biosensors): Neither the PP2A activator DT-061, nor Flu had an effect | DSS3 BRET score ([6]; K-RasG12V nanoclustering-BRET dose response (0.1–80 μM; OphA 0.3–20 μM), replicates): 0.6 and 1 | DSS3 BRET score ([6]; K-RasG12V nanoclustering-BRET, mean): 0.8 | K-RasG12V BRET ([6]; A/D plasmid ratio 4/1, individual replicates N1.1-N3.4): 102.439 and 101.315 and 102.277 and 100.953 and 98.6605 and 100.047 and 101.073 and 97.4843 | K-RasG12V BRET ([6]; mean): 100.53 | normalized pERK/ERK ratio % ([7]; 2 h, trametinib 1 μM, AMG-510 1 μM, calmidazolium 20 μM, DT-061 20 μM, combination each 10 μM, fluphenazine mustard 20 μM, replicates N1-N3): 84.4108% and 54.7097% and 80.94% | normalized pERK/ERK ratio % ([7]; same treatments, mean): 73.35% | apoptotic cells (%) (MDA-MB-231 cells; early and late stage, replicates N1, N2): 17.3843% and 7.228% | apoptotic cells (%) (MDA-MB-231 cells; mean): 12.31% | apoptotic cell population (MDA-MB-231 cells; MDA-MB-231, 24 h): 12% | IC50 ([8]; A375 3D spheroids, serum free, 3 days treatment, replicates N1, N2): 2700 nM | IC50 ([8]; Homo sapiens, A-375, 72 h, A375 3D spheroids, serum free, 3 days treatment, replicates N1, N2): 1500 nM | IC50 ([8]; Homo sapiens, A-375, A375 3D spheroids, Mean, n = 2): 2100 nM
